What was measured:
E. coli = settings: added in the polyurethane reaction mixture in amounts of 0.1 wt % to 0.5 wt %
S. aureus = settings: added in the polyurethane reaction mixture in amounts of 0.1 wt % to 0.5 wt %

zinc pyrithione was tested, and the “effectiveness against E. coli” value (E. coli) was “particularly effective” and the “effectiveness against S. aureus” value (S. aureus) was “particularly effective”.
